Assay [1] deals with T1, β-1,4-Galactosyltransferase 7 (β4GalT7) (Homo sapiens, UniProt Q9UBV7).
T1 construct: gene B4GALT7
T1 sequence (Q9UBV7 81-327): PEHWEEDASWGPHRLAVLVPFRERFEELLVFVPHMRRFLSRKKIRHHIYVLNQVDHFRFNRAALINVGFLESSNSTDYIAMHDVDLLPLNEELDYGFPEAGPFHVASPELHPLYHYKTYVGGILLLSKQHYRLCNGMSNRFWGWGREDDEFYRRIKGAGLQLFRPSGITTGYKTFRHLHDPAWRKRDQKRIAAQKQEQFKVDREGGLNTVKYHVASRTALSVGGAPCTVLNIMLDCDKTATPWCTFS
Kind of assay: HPLC assay of GalXylNap formation from XylNap and UDP-Gal. It is filed as biochemical. An excerpt: HPLC assay of GalXylNap formation from XylNap and UDP-Gal on β-1,4-Galactosyltransferase 7 (β4GalT7) | display concentration-dependent inhibition of β4GalT7.

For assay [2], the target named is T1, β-1,4-Galactosyltransferase 7 (β4GalT7). Kind of assay: STD NMR. It is filed as binding.

In turn, `O=P(O)(O)CP(=O)(O)OCCO[C@@H]1COC(O)[C@H](O)[C@H]1O` (mixture of isomers) [compound 4, 4-O-(2-(Methylene-diphosphoryl)-hydroxyethyl)-α/β-D-xylopyranose] had a concentration for half-maximal inhibition (IC50) in assay [1] of 188 µM.
`CC(=O)N[C@H]1[C@@H](OP(=O)(O)OP(=O)(O)OC[C@H]2O[C@@H](n3ccc(=O)[nH]c3=O)[C@H](O)[C@@H]2O)O[C@H](CO)[C@H](O)[C@@H]1O` [UDP-GalNAc]: in assay [2], the “STD NMR” value is given as “β4GalT7 tolerates an N-acetyl group at C2 of the sugar residue”.

(Values after PMC12676349, “Design of Glycosyltransferase Inhibitors: Targeting the Biosynthesis of Glycosaminoglycans by Phosphonate-Xyloside” (ACS Omega, 2025).)
